In patent publication US20220072095A1, “METHODS AND COMPOSITIONS FOR TREATING SKIN DISEASES” (VANDERBILT UNIVERSITY, priority 2018, published 2022):
Values after ≈ are worked out from the molar mass of the structure shown. Bridge positions count the residues as written; N and C are the ends. Peptide text beside a SMILES is read from it.

Legend:
[1] = Solubility of NTM peptides; format: physicochemical; conditions: cSN50: depending on the method of synthesis and purification; read-out: soluble at levels of
Method: cSN50.1 is a cyclized peptide having the sequence of cSN50 with the exception that the tyrosine at position 18 of cSN50, adjacent to the first cysteine, has been removed. Methods of making and using cSN50 are described, for example, in U.S. Pat. Nos. 7,553,929 and 6,495,518. The amino acid sequence of cSN50.1 is […] (SEQ ID NO: 2). The tyrosine at position 18 was removed from the sequence of cSN50 to increase solubility. cSN50 is soluble at levels of ranging from 2.0 mg/mL to 40 mg/mL depending on the method of synthesis and purification whereas cSN50.1 is soluble at levels of at least 100 mg/ml. Any mimetics, derivatives, or homologs of cSN50.1 may be used in the compositions, methods, and kits disclosed herein. cSN50.1 is also encompassed by SEQ ID NO: 3, SEQ ID NO: 4 and SEQ ID NO: 5. Additional examples of NTMs include fragment-designed and synthesized peptides in which cargo is incorporated as two, rather than one, modules or cargos derived from intracellular proteins other than NFκB 1. Such additional examples include the sequences of SEQ ID NO: 6, SEQ ID NO: 7, SEQ ID NO: 8, and SEQ ID NO: 9.

[2] = target: Imp beta (Homo sapiens, UniProt Q14974); conditions: cell culture and preclinical studies
Sequence of Imp beta (Q14974 whole entry, looked up): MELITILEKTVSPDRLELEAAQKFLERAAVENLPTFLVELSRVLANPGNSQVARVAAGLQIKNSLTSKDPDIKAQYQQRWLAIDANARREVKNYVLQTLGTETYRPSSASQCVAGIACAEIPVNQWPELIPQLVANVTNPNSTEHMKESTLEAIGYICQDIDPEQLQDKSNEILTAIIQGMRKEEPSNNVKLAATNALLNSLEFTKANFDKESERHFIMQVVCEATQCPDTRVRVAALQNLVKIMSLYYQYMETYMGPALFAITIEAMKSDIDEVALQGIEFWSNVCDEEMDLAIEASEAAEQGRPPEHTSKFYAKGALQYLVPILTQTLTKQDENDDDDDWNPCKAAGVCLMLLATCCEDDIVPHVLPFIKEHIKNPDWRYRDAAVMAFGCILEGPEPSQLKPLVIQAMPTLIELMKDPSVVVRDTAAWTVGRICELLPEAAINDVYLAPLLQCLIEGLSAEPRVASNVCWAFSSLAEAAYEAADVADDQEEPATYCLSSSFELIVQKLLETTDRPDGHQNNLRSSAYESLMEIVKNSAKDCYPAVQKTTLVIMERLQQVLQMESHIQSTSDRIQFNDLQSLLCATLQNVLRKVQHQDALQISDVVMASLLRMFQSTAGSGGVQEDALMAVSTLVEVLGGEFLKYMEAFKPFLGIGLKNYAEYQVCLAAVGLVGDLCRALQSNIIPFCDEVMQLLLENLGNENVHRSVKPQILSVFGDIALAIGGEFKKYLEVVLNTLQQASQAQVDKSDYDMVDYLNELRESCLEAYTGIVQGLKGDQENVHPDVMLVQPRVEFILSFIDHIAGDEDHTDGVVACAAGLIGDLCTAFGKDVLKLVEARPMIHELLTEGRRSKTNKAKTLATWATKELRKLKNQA

| solubility [1] [mg/mL] | Molecule | importin selectivity (Comments) [2] |
| --- | --- | --- |
| ≥ 100 | CSCC[C@@H]1NC(=O)[C@H](CC(C)C)NC(=O)[C@H](CCCCN)NC(=O)[C@H](CCC(N)=O)NC(=O)[C@H](CCCNC(=N)N)NC(=O)[C@H](CCCCN)NC(=O)[C@H](CCCNC(=N)N)NC(=O)[C@H](CCC(N)=O)NC(=O)[C@H](C(C)C)NC(=O)[C@@H](NC(=O)[C@@H]2CCCN2C(=O)[C@H](C)NC(=O)[C@H](CC(C)C)NC(=O)[C@H](CC(C)C)NC(=O)[C@H](C)NC(=O)[C@H](CC(C)C)NC(=O)[C@H](CC(C)C)NC(=O)[C@@H](NC(=O)[C@H](C)NC(=O)[C@@H]2CCCN2C(=O)[C@H](CC(C)C)NC(=O)[C@H](CC(C)C)NC(=O)[C@H](C)NC(=O)[C@@H](NC(=O)[C@H](C)NC(=O)[C@H](C)N)C(C)C)C(C)C)CSSC[C@@H](C(=O)O)NC(=O)[C@@H]2CCCN2C1=O [cSN50.1] (H-AAVALLPAVLLALLAPCVQRKRQKLMPC-OH; disulfide 17-28; N-terminus and C-terminus assumed) |  |
| 2 to 40 (≈ 0.635 to 12.7 mM) | CSCC[C@@H]1NC(=O)[C@H](CC(C)C)NC(=O)[C@H](CCCCN)NC(=O)[C@H](CCC(N)=O)NC(=O)[C@H](CCCNC(=N)N)NC(=O)[C@H](CCCCN)NC(=O)[C@H](CCCNC(=N)N)NC(=O)[C@H](CCC(N)=O)NC(=O)[C@H](C(C)C)NC(=O)[C@H](Cc2ccc(O)cc2)NC(=O)[C@@H](NC(=O)[C@@H]2CCCN2C(=O)[C@H](C)NC(=O)[C@H](CC(C)C)NC(=O)[C@H](CC(C)C)NC(=O)[C@H](C)NC(=O)[C@H](CC(C)C)NC(=O)[C@H](CC(C)C)NC(=O)[C@@H](NC(=O)[C@H](C)NC(=O)[C@@H]2CCCN2C(=O)[C@H](CC(C)C)NC(=O)[C@H](CC(C)C)NC(=O)[C@H](C)NC(=O)[C@@H](NC(=O)[C@H](C)NC(=O)[C@H](C)N)C(C)C)C(C)C)CSSC[C@@H](C(=O)O)NC(=O)[C@@H]2CCCN2C1=O [cSN50] (H-AAVALLPAVLLALLAPCYVQRKRQKLMPC-OH; disulfide 17-29; N-terminus and C-terminus assumed) |  |
|  | AAVALLPAVLLALLAPCVQRDEQKLMPC [cSN50.1β] | Imp beta-selective |
